The term inhibition denotes the change of the read-out against control, counted positive when it falls.

In one assay the target is T1, aldose reductase (Bos taurus, UniProt P16116).
T1 construct: preparation of the enzyme from bovine lens; from tissue; host or cells: bovine lens
In words: in vitro aldose reductase inhibition (modified Hayman and Kinoshita procedure, enzyme from bovine lens). The format is biochemical. The conditions noted are these: for inhibition at 0.04 µM: 4 × 10^-8 M; for inhibition at 1 µM / inhibition at 0.1 µM: read-out: % inhibition In Vitro. How it is done: Only two minor reagent changes were made: (a) the rinsing mixture was an aqueous 5% (w/v) trichloroacetic acid solution and (b) the stock solution was prepared by dissolving 25 mg of dulcitol in 100 ml of an aqueous trichloroacetic acid solution. [N.B.: For each experiment the average value found in the tissue from rats fed the glucose diet was subtracted from the individual values found in the corresponding tissue in galactose-fed rats to obtain the amount of polyol accumulated.] […] In the present case the procedure of Hayman and Kinoshita was modified in that the final chromatography step was omitted in the preparation of the enzyme from bovine lens.

The test system of a further assay is Galactitol Accumulation. Briefly: lowering of galactitol (dulcitol) accumulation in tissues of galactosemic rats. Type of assay: in vivo, rat (Sprague-Dawley). The conditions noted are these: four days, vs untreated galactosemic rats; for % Lowering Galactitol Accumulation In Vivo, D: diaphragm. The text has this:
The aldose reductase inhibiting property of the compounds of this invention and the utilization of the compounds in preventing, diminishing and alleviating diabetic complications are demonstrable in experiments using galactosemic rats, see Dvornik et al., Science, 182, 1146 (1973). Such experiments are exemplified hereinbelow after the listing of the following general comments pertaining to these experiments:
(a) Four or more groups of six male rats, 50-70 g, Sprague-Dawley strain, were used. The first group, the control group, was fed a mixture of laboratory chow (rodent Laboratory Chow, Purina) and glucose at 20% (w/w %) concentration. An untreated galactosemic group was fed a similar diet in which galactose was substituted for glucose. The third group was fed a diet prepared by mixing a given amount of the test compound with the galactose containing diet. The concentration of galactose in the diet of the treated groups was the same as that for the untreated galactosemic group.
(b) After four days, the animals were killed by euthanization. Both the lens and sciatic nerve were removed, weighed and stored frozen for polyol determination.
(c) The polyol determination was performed by a modification of the procedure of M. Kraml and L. Cosyns, Clin. Biochem., 2, 373 (1969). Only two minor reagent changes were made: (a) the rinsing mixture was an aqueous 5% (w/v) trichloroacetic acid solution and (b) the stock solution was prepared by dissolving 25 mg of dulcitol in 100 ml of an aqueous trichloroacetic acid solution. [N.B.: For each experiment the average value found in the tissue from rats fed the glucose diet was subtracted from the individual values found in the corresponding tissue in galactose-fed rats to obtain the amount of polyol accumulated.] The aldose reductase inhibiting effects of the compounds of formula (I) were also tested by employing an in vitro testing procedure similar to that described by S. Hayman and J. H. Kinoshita, J. Biol. Chem., 240, 877 (1965). In the present case the procedure of Hayman and Kinoshita was modified in that the final chromatography step was omitted in the preparation of the enzyme from bovine lens.
The figures under L, N, and D represent the percentage decrease of dulcitol accumulation in the tissues of the lens, sciatic nerve, and diaphragm, respectively, for treated rats as compared to untreated rats.

Each structure is given as a SMILES string. Where two headings read alike, the source gives them in different places.

As to `O=C1CC2(C(=O)N1)C(=O)N(Cc1nc3cc(C(F)(F)F)ccc3s1)C(=O)c1ccccc12` (centres unmarked) [R^1=H, R^3=CF3, 2-[[5-(Trifluoromethyl)-2-benzothiazolyl]methyl]spiro[isoquinoline-4-(1H),3'-pyrrolidine]-1,2',3,5'(2H)-tetrone], at aldose reductase, the inhibition at 0.04 µM turned out to be 90% and the inhibition at 0.1 µM amounted to 93%. In addition, the inhibition at 1 µM at aldose reductase (10^-6 M) came out at 95%. The “% Lowering Galactitol Accumulation In Vivo, D” value in the assay with Galactitol Accumulation (0.5 mg/kg/day in diet) is 94%. In addition, in the assay with Galactitol Accumulation (1.1 mg/kg/day in diet), the “% Lowering Galactitol Accumulation In Vivo, D” value is 89%. In addition, the “% Lowering Galactitol Accumulation In Vivo, L” value in the assay on Galactitol Accumulation (lens, 1.1 mg/kg/day in diet) came to 22%.

`O=C1CC2(C(=O)N1)C(=O)N(Cc1nc3ccccc3s1)C(=O)c1ccc(F)cc12` (centres unmarked) [R^1=F, R^3=H, 2-(2-Benzothiazolylmethyl)-6-fluorospiro[isoquinoline-4(1H),3'-pyrrolidine]-1,2',3,5'(2H)-tetrone]: at aldose reductase, 0.04 µM produced 91% inhibition, the inhibition at 0.1 µM is 94% and the inhibition at 1 µM stood at 96%. Further, the “% Lowering Galactitol Accumulation In Vivo, D” value in the assay on Galactitol Accumulation (4.6 mg/kg/day in diet) was 93%.

On to `O=C1CC2(C(=O)N1)C(=O)N(Cc1nc3ccccc3s1)C(=O)c1ccccc12` (centres unmarked) [R^1=H, R^3=H, 2-(2-Benzothiazolylmethyl)spiro[isoquinoline-4(1H),3'-pyrrolidine)-1,2',3,5'(2H)-tetrone], for which at 0.04 µM the inhibition against aldose reductase was 81%. In addition, the inhibition at 1 µM at aldose reductase (10^-6 M) is 97%. Also, at aldose reductase (10^-7 M), the inhibition at 0.1 µM stood at 92%.

In the case of `O=C1CC2(C(=O)N1)C(=O)N(Cc1nc3cc(C(F)(F)F)ccc3s1)C(=O)c1ccc(F)cc12` (centres unmarked) [R^1=F, R^3=CF3, 6-Fluoro-2-[[5-(trifluoromethyl)-2-benzothiazolyl]methyl]spiro-[isoquinoline-4(1H),3'-pyrrolidine]-1,2',3,5'(2H)-tetrone], on aldose reductase, testing at 0.04 µM gave an inhibition of 92% and the inhibition at 0.1 µM is 94%. The inhibition at 1 µM on aldose reductase (10^-6 M) is 95%. For the same compound, the “% Lowering Galactitol Accumulation In Vivo, D” value in the assay with Galactitol Accumulation (1.0 mg/kg/day in diet) was found to be 85%.

For the origin of these results see US5093496A, “Spiro-isoquinoline-pyrrolidines and analogs thereof useful as aldose reductase inhibitors” (American Home Products Corporation, priority 1991, dated 1992).
